This note sets out measurements from patent publication US12226412B2, “Heteroaryl-ketone fused azadecalin glucocorticoid receptor modulators” (Corcept Therapeutics, Inc., priority 2012, dated 2025).

pKi: −log10 of the molar value. Like-named read-outs stand apart in the source and are kept apart here.

One assay deals with T1, human recombinant GR (Homo sapiens, UniProt P04150).
T1 construct: purchased PanVera P2812
T1 sequence (P04150 1-777): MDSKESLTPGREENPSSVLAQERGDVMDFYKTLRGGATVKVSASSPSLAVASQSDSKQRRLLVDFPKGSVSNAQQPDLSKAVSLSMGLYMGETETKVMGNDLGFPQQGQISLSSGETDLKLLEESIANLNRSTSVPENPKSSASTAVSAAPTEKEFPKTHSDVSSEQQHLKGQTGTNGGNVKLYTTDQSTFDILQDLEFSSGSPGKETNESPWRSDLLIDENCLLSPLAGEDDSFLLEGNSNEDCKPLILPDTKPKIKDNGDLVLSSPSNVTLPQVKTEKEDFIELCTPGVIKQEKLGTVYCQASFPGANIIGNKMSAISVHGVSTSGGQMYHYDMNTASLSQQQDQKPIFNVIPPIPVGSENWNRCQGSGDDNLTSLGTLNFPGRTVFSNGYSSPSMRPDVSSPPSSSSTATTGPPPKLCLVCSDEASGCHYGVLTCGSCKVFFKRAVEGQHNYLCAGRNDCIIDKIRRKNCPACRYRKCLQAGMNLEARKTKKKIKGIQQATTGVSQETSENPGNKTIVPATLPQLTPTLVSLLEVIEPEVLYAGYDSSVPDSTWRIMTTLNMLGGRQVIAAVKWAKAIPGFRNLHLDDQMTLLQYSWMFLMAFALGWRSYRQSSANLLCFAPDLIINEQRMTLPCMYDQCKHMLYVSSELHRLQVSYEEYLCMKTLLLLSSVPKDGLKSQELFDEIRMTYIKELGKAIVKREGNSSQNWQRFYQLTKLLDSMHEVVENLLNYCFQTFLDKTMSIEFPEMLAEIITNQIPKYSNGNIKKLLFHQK
Description: Human glucocorticoid receptor (GR) fluorescence polarisation (FP) binding assay. The essentials:
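Competition fluorescence polarisation: 0.5 nM GS Red labelled glucocorticoid and 1 nM recombinant human GR with 8-point half-log compound series, 1% DMSO, 4 h room temperature, potassium phosphate pH 7.4 buffer with molybdate, EDTA, DTT. Affinity derived from the drop in polarisation, normalised to blank wells.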

Assay [1] deals with induction of TAT by dexamethasone in HepG2 cells. Description: HepG2 tyrosine aminotransferase (TAT) assay. It is filed as cell-based, human.
Setting [2] is: human recombinant GR, fluorescence polarisation binding assay, read-out: GR binding.
[3] abbreviates: HepG2 cells, challenge of 100 nM dexamethasone, Ki from IC50 by Cheng and Prusoff equation.

Regarding `Cc1ccnc(C(=O)[C@]23Cc4cnn(-c5ccc(F)cc5)c4C=C2CCN(S(=O)(=O)c2ccc4c(c2)CCO4)C3)c1` [Example 11AN, (R)-(6-((2,3-dihydrobenzofuran-5-yl)sulfonyl)-1-(4-fluorophenyl)-4,4a,5,6,7,8-hexahydro-1H-pyrazolo[3,4-g]isoquinolin-4a-yl)(4-methylpyridin-2-yl)methanone], the pKi at human recombinant GR (setting [2]) was over 9.30; in assay [1] (setting [3]) it was over 7.70.
For `Cc1ccnc(C(=O)[C@]23Cc4cnn(-c5ccc(F)cc5)c4C=C2CCN(S(=O)(=O)c2ccc4c(c2)CC(=O)N4C)C3)c1` [Example 11AO, (R)-5-((1-(4-fluorophenyl)-4a-(4-methylpicolinoyl)-4a,5,7,8-tetrahydro-1H-pyrazolo[3,4-g]isoquinolin-6 (4H)-yl)sulfonyl)-1-methylindolin-2-one] the same measures were over 9.30 and over 7.70.
For `Cc1ccnc(C(=O)[C@]23Cc4cnn(-c5ccc(F)cc5)c4C=C2CCN(S(=O)(=O)c2cccc(S(C)(=O)=O)c2)C3)c1` [Example 11AP, (R)-(1-(4-fluorophenyl)-6-((3-(methylsulfonyl)phenyl)sulfonyl)-4,4a,5,6,7,8-hexahydro-1H-pyrazolo[3,4-g]isoquinolin-4a-yl)(4-methylpyridin-2-yl)methanone], in that order: over 9.30 and over 7.70.
For `Cc1ccnc(C(=O)[C@]23Cc4cnn(-c5ccc(F)cc5)c4C=C2CCN(S(=O)(=O)c2cn(C)nc2C)C3)c1` [Example 11AQ, (R)-(6-((1,3-dimethyl-1H-pyrazol-4-yl)sulfonyl)-1-(4-fluorophenyl)-4,4a,5,6,7,8-hexahydro-1H-pyrazolo[3,4-g]isoquinolin-4a-yl)(4-methylpyridin-2-yl)methanone], in that order: over 9.30 and 7.00 to 7.70.
As for `Cc1ccnc(C(=O)[C@]23Cc4cnn(-c5ccc(F)cc5)c4C=C2CCN(S(=O)(=O)c2ccc4c(c2)OCCO4)C3)c1` [Example 11AR, (R)-(6-((2,3-dihydrobenzo[b][1,4]dioxin-6-yl)sulfonyl)-1-(4-fluorophenyl)-4,4a,5,6,7,8-hexahydro-1H-pyrazolo[3,4-g]isoquinolin-4a-yl)(4-methylpyridin-2-yl)methanone], the pKi on human recombinant GR (setting [2]) was over 9.30; in assay [1] (setting [3]), over 7.70.
For `Cc1ccnc(C(=O)[C@]23Cc4cnn(-c5ccc(F)cc5)c4C=C2CCN(S(=O)(=O)c2ccc(C(F)(F)F)c(F)c2)C3)c1` [Example 11AS, (R)-(6-((3-fluoro-4-(trifluoromethyl)phenyl)sulfonyl)-1-(4-fluorophenyl)-4,4a,5,6,7,8-hexahydro-1H-pyrazolo[3,4-g]isoquinolin-4a-yl)(4-methylpyridin-2-yl)methanone], in that order: over 9.30 and over 7.70.
For the molecule `O=C(c1ccccn1)[C@]12Cc3cnn(-c4ccc(F)cc4)c3C=C1CCN(S(=O)(=O)c1ccc(C(F)(F)F)c(F)c1)C2` [Example 11AT, (R)-(6-((3-fluoro-4-(trifluoromethyl)phenyl)sulfonyl)-1-(4-fluorophenyl)-4,4a,5,6,7,8-hexahydro-1H-pyrazolo[3,4-g]isoquinolin-4a-yl)(pyridin-2-yl)methanone], the pKi on human recombinant GR is over 9.30; in assay [1], over 7.70.
As to `CCc1ccnc(C(=O)[C@]23Cc4cnn(-c5ccc(F)cc5)c4C=C2CCN(S(=O)(=O)c2cccc(C#N)c2)C3)c1` [Example 11AU, (R)-3-((4a-(4-ethylpicolinoyl)-1-(4-fluorophenyl)-4a,5,7,8-tetrahydro-1H-pyrazolo [3,4-g]isoquinolin-6 (4H)-yl)sulfonyl)benzonitrile], the results for the pKi (at human recombinant GR (setting [2]); in assay [1] (setting [3])) were over 9.30 and over 7.70, respectively.
For the molecule `CCc1ccnc(C(=O)[C@]23Cc4cnn(-c5ccc(F)cc5)c4C=C2CCN(S(=O)(=O)c2cccc(C(F)(F)F)n2)C3)c1` [Example 11AV, (R)-(4-ethylpyridin-2-yl) (1-(4-fluorophenyl)-6-((6-(trifluoromethyl)pyridin-2-yl)sulfonyl)-4,4a,5,6,7,8-hexahydro-1H-pyrazolo [3,4-g]isoquinolin-4a-yl)methanone], the pKi on human recombinant GR (setting [2]) was over 9.30; in assay [1] (setting [3]), over 7.70.
For the molecule `Cc1ccnc(C(=O)[C@]23Cc4cnn(-c5ccc(F)cc5)c4C=C2CCN(S(=O)(=O)c2cccc(C(=O)O)c2)C3)c1` [Example 11AW, (R)-3-((1-(4-fluorophenyl)-4a-(4-methylpicolinoyl)-4a,5,7,8-tetrahydro-1H-pyrazolo[3,4-g]isoquinolin-6 (4H)-yl)sulfonyl)benzoic acid], the pKi at human recombinant GR (setting [2]) is over 9.30; in assay [1] (setting [3]), at most 7.00.
For `Cc1ccnc(C(=O)[C@]23Cc4cnn(-c5ccc(F)cc5)c4C=C2CCN(S(=O)(=O)c2c(C)noc2C)C3)c1` [Example 11AX, (R)-(6-((3,5-dimethylisoxazol-4-yl)sulfonyl)-1-(4-fluorophenyl)-4,4a,5,6,7,8-hexahydro-1H-pyrazolo[3,4-g]isoquinolin-4a-yl)(4-methylpyridin-2-yl)methanone] the same measures were over 9.30 and 7.00 to 7.70.
For `CCn1cc(S(=O)(=O)N2CCC3=Cc4c(cnn4-c4ccc(F)cc4)C[C@]3(C(=O)c3ccccn3)C2)cn1` [Example 11AY, (R)-(6-((1-ethyl-1H-pyrazol-4-yl)sulfonyl)-1-(4-fluorophenyl)-4,4a,5,6,7,8-hexahydro-1H-pyrazolo[3,4-g]isoquinolin-4a-yl)(pyridin-2-yl)methanone], in that order: over 9.30 and 7.00 to 7.70.
For `O=C(c1ccccn1)[C@]12Cc3cnn(-c4ccccc4)c3C=C1CCN(S(=O)(=O)c1cccc(C(F)(F)F)c1)C2` [Example 11AZ, (R)-(1-phenyl-6-((3-(trifluoromethyl)phenyl)sulfonyl)-4,4a,5,6,7,8-hexahydro-1H-pyrazolo[3,4-g]isoquinolin-4a-yl)(pyridin-2-yl)methanone] the same measures were over 9.30 and 7.00 to 7.70.
Consider `COc1ccc(S(=O)(=O)N2CCC3=Cc4c(cnn4-c4ccc(F)cc4)C[C@]3(C(=O)c3ccccn3)C2)cc1C` [Example 11B, (R)-(1-(4-fluorophenyl)-6-((4-methoxy-3-methylphenyl)sulfonyl)-4,4a,5,6,7,8-hexahydro-1H-pyrazolo[3,4-g]isoquinolin-4a-yl)(pyridin-2-yl)methanone], for which the pKi at human recombinant GR (setting [2]) was over 9.30; in assay [1] (setting [3]), over 7.70.
Regarding `Cc1ccnc(C(=O)[C@]23Cc4cnn(-c5ccc(F)cc5)c4C=C2CCN(S(=O)(=O)c2cc(C)nn2C)C3)c1` [Example 11BA, (R)-(6-((1,3-dimethyl-1H-pyrazol-5-yl)sulfonyl)-1-(4-fluorophenyl)-4,4a,5,6,7,8-hexahydro-1H-pyrazolo[3,4-g]isoquinolin-4a-yl)(4-methylpyridin-2-yl)methanone], the values for the pKi (on human recombinant GR (setting [2]); in assay [1] (setting [3])) were over 9.30 and over 7.70, respectively.
On to `Cc1ccnc(C(=O)[C@]23Cc4cnn(-c5ccc(F)cc5)c4C=C2CCN(S(=O)(=O)c2ccnc(C(F)(F)F)c2)C3)c1` [Example 11BB, (R)-(1-(4-fluorophenyl)-6-((2-(trifluoromethyl)pyridin-4-yl)sulfonyl)-4,4a,5,6,7,8-hexahydro-1H-pyrazolo[3,4-g]isoquinolin-4a-yl)(4-methylpyridin-2-yl)methanone], for which the pKi at human recombinant GR (setting [2]) was over 9.30; in assay [1] (setting [3]) it was over 7.70.
For `Cc1ccnc(C(=O)[C@]23Cc4cnn(-c5ccc(F)cc5)c4C=C2CCN(S(=O)(=O)c2cc(C(F)(F)F)ccn2)C3)c1` [Example 11BC, (R)-(1-(4-fluorophenyl)-6-((4-(trifluoromethyl)pyridin-2-yl)sulfonyl)-4,4a,5,6,7,8-hexahydro-1H-pyrazolo[3,4-g]isoquinolin-4a-yl)(4-methylpyridin-2-yl)methanone] the same measures were over 9.30 and over 7.70.
For `Cc1ccnc(C(=O)[C@]23Cc4cnn(-c5ccc(F)cc5)c4C=C2CCN(S(=O)(=O)c2cn[nH]c2C)C3)c1` [Example 11BD, (R)-(1-(4-fluorophenyl)-6-((5-methyl-1H-pyrazol-4-yl)sulfonyl)-4,4a,5,6,7,8-hexahydro-1H-pyrazolo[3,4-g]isoquinolin-4a-yl)(4-methylpyridin-2-yl)methanone], in that order: over 9.30 and 7.00 to 7.70.
In the case of `O=C(c1ccccn1)[C@]12Cc3cnn(-c4ccc(F)cc4)c3C=C1CCN(S(=O)(=O)c1ccnc(C(F)(F)F)c1)C2` [Example 11BE, (R)-(1-(4-fluorophenyl)-6-((2-(trifluoromethyl)pyridin-4-yl)sulfonyl)-4,4a,5,6,7,8-hexahydro-1H-pyrazolo[3,4-g]isoquinolin-4a-yl)(pyridin-2-yl)methanone], the pKi at human recombinant GR (setting [2]) is over 9.30; in assay [1] (setting [3]) it was 7.00 to 7.70.
